Data reported in patent publication US20070197658A1, “Polyamines and their use as antibacterial and sensitizing agents” (priority 2006, published 2007).
Several values for one entry are separate records, joined by “and”; a condition that tells them apart may be missing. Equal values may be shown once. Where a name gives a salt, the structure may show the parent alone. Read-outs that look alike come from different tables or passages of the source. Bridge positions count the residues as written; N and C are the ends. Square brackets hold non-standard residues; d marks the D form. Peptide text beside a SMILES is read from it. Dab = NCC[C@H](N)C(=O)O

Tests used:
E. coli ATCC 9637 [1] = test: Effect of acylpolyamines on MIC of rifampicin (sensitization); type: cell-based, Escherichia coli; conditions: for Sensitization to Rifampin: E. coli strain 9637 preincubated with 10 μM of compound, MIC of rifampicin
Description: E. coli ATCC 9637 was seeded in MH broth in chequerboard format in a 384-well plate containing a constant concentration of compound and varying doses of rifampicin. Bacterial growth was monitored by turbidimetry at 600 nm. PMBN and melittin were used as positive controls. Wells containing no test-compound served as negative control. […] Fold sensitization was calculated as MICRifampicin alone/MICRifampicin+10μM Compound.
Perturbation of the outer membrane permeability barrier greatly sensitizes Gram negative organisms to otherwise impermeable hydrophobic solutes, rifampicin being a classic example To determine the effect of acylpolyamines on the MIC of hydrophobic antibiotic, rifampicin, E. coli strain 9637 was used. Overnight cultures of E. coli grown in MHB preincubated with 10 μM of acylpolyamines were added to serially diluted rifampicin in a 384-well microtiter plate. After incubation at 37° C. overnight, the MIC was determined. Controls included PMBN and melittin (positive) and rifampicin alone (negative). All experiments were run in triplicate.

E. coli ATCC 9637 [2] = test: microbe, parasite or virus in culture
Description: (§1) An equal volume of a suspension of either E. coli ATCC 9637 (FIG. 6A) or S. aureus ATCC 13709 (FIG. 6B) in 2× Mueller-Hinton broth was added using an automated liquid dispensing system to a 384 well plate, and bacterial growth was measured by absorptimetry as described in Materials and Methods.
(§2) In this example, E. coli strain 9637 and S. aureus strain 13709 were procured from ATCC (Manassas, Va.). For IM permeability assays, E. coli ML-35 (ATCC 43827), a lactose permease-deficient strain with constitutive cytoplasmic β-galactosidase activity was used (26). Calcium chloride transformation of E. coli ML-35 was performed using the plasmid vector pBR322 (6), encoding tetracycline and ampicillin resistance genes (Promega, Madison, Wis.). The transformed strain, E. coli ML-35p, selected by ampicillin resistance, was utilized for the OM permeabilization assay. E. coli ML-35p was maintained on trypticase soy agar plates with 50 μg/ml of ampicillin.
(§3) Minimum inhibitory concentrations of the acylpolyamines were determined by broth microdilution method (1) as per NCCLS guidelines. Mid-log phase Mueller-Hinton broth (MHB; non-cation supplemented) cultures of organisms (40 μl; OD600nm adjusted to 0.5 AU, and diluted ten-fold) were added to equal volumes of two-fold serially diluted acylpolyamines in a 384-well microtiter plate with the help of a Biotek Precision 2000 automated microplate pipetting system. The MICs of rifampicin, polymyxin B (PMB), polymyxin B nonapeptide (PMBN), naphthylacetyl spermine trihydrochloride and methoctramine tetrahydrochloride (Sigma, St. Louis, Mo.) were included as reference compounds for comparison of activity. The microtiter plates were sealed and incubated overnight at 37° C. The plates were read at an absorbance of 600 nm. The lowest concentration of an agent inhibiting growth of the organisms was recorded as the MIC.

S. aureus ATCC 13709 = test: microbe, parasite or virus in culture
Description: as §1, §2, §3

CF-1 mice = conditions: preliminary
Description: Detailed biophysical studies on the characterization of the binding site on albumin, stoichiometry, and dependence of binding affinity on mono-versus bis-acylation and acyl chain length will be published elsewhere.
Clinical signs of acute toxicity were monitored for 48 h following a single injection. In subacute studies, 100 μg of 4e was injected daily in the subcutaneous tissue of the flank region, the sites being alternated every day, for a duration of 15 days. The animals were monitored daily for signs of local irritation, weight loss, and food consumption.

human erythrocytes = conditions: for hemolytic activity in the presence of human serum albumin: physiological concentrations (~650 μM) of human serum albumin
Description: Melittin was used as a positive control.
Erythrocyte damage was measured using two different techniques. In the first, hemolysis was quantified using extremely diluted, aged human whole blood such that the effects of the compounds binding to plasma proteins would be negligible, and the hemolytic activity would be magnified because of increased osmotic fragility of the erythrocytes as a consequence of depleted Na^+ K^+ ATPase activity. […] Dilute erythrocyte suspensions were prepared by diluting one-week-old whole blood obtained by venipuncture from healthy human volunteers 1:1000 in isotonic (0.9 g/100 ml) saline solution to which was added graded doses of compound. […] The samples were therefore examined with a Beckman-Coulter Vi-Cell™ Cell Viability Analyzer (Beckman-Coulter, Hialeah, Fla.). This instrument implements an automated intravital trypan blue exclusion method using real-time automated video microscopy. Measurement parameters for erythrocytes were gated appropriately on control erythrocytes to specify thresholds of cell recognition and viability. Data on total number of cells/ml and viable cells/ml were collected through 50 captured images per sample with a counting accuracy of ±3%. In order to examine the effect of plasma proteins on the surface activity, some of the experiments were repeated in the presence of near-physiological concentrations of human serum albumin. […] The second method, consequently, was designed to examine the effects of the compounds on whole blood. […] After incubation at 37° C. for 30 min, the plates were centrifuged at 3000 RPM for 10 min, 80 μl of supernatants transferred to a fresh plate, and the amount of free hemoglobin released into the supernatant was quantified using absorptimetry at 570 nm.
The hemolysis induced by the compounds was quantified using an extremely dilute suspension of washed, aged human erythrocytes under protein-free conditions (isotonic saline). […]

[3] = test system: E. coli ML-35p (OM) / E. coli ML-35 (IM); type: cell-based, Escherichia coli; conditions: nitrocefin and ONPG hydrolysis
Description: OM permeabilizing activity was determined using E. coli ML-35p (parent i^− z^+ y^− ATCC 43827 transformed with pBR322 vector encoding periplasmic β-lactamase); the leakage of periplasmic β-lactamase activity was quantified using nitrocefin as a chromogenic substrate. IM permeabilizing activity was determined using E. coli ML-35 using o-nitrophenyl-β-D-galactopyranoside as the substrate to determine the β-galactosidase activity. In all experiments, PMB, PMBN, and melittin were used as reference compounds.
Nitrocefin (Calbiochem, San Diego, Calif.) was used for the determination of periplasmic β-lactamase activity since PADAC has been reported to be frequently insensitive to β-lactamase activity in clinically relevant strains of Staphylococcus. […] Harvested mid-log phase cultures of E. coli ML-35p (OD600nm adjusted to 0.5 AU) grown in trypticase soy broth were washed thrice with normal saline (0.9%). Nitrocefin was added to a final concentration of 50 μg/ml to the washed bacterial suspension, which was then added to the serially diluted compounds in a 384-well microtiter plate as described earlier. […] After various times of incubation at 37° C., β-lactamase activity was measured spectrophotometrically at 486 nm using an automated Spectramax M2 instrument (Molecular Devices, Sunnyvale, Calif.).
The IM permeability was measured using o-nitrophenyl-β-D-galactopyranoside (“ONPG”; Sigma, St. Louis, Mo.) as the substrate to determine the β-galactosidase activity. […] Washed cultures of E coli ML-35 mixed with 1.5 mM of ONPG in normal saline (0.9%) were added to serially diluted compounds in a 384-well microtiter plate. PMBN and melittin were used as the controls. The production of o-nitrophenol was quantified absorptimetrically at 420 nm after an incubation period of 1 hour at 37° C.
OM and IM permeability were determined respectively from dose-response curves of nitrocefin and ONPG hydrolysis rates as described in Lehrer et al., Concurrent assessment of inner and outer membrane permeabilization and bacteriolysis in E. coli by multiple-wavelength spectrophotometry, J. Immunol.

[4] = 500 μM in 50 mM Tris buffer, pH 7.4, 5% DMSO, 25° C.
Description: Charged, amphipathic molecules are surface-active, and can be cytolytic to mammalian cells. […] Samples were at 500 μM concentration in 50 mM Tris buffer, pH 7.4 containing 5% DMSO. The instrument was calibrated with water at 25° C. (72 mN/m) and surface tension values were recorded over a range of bubble surface ages from 100 to 1500 ms at 25° C.

E. coli W3110 = conditions: cited from earlier work
[5] = E. coli ATCC 9637, Mueller-Hinton broth, overnight 37° C.
[6] = S. aureus ATCC 13709, Mueller-Hinton broth, overnight 37° C.
[7] = 10 μM compound, E. coli ATCC 9637

CC(=O)NCCCNCCCNCCCCNCCCN.O=C(O)C(F)(F)F.O=C(O)C(F)(F)F.O=C(O)C(F)(F)F.O=C(O)C(F)(F)F [Compound 4a]
Sensitization to Rifampin (E. coli ATCC 9637 [1]): 31.25
MIC (E. coli ATCC 9637 [2]; [5]): 62.5 μM and 47.3 μg/ml

CCCCCCCCC(=O)NCCCNCCCNCCCCNCCCN.O=C(O)C(F)(F)F.O=C(O)C(F)(F)F.O=C(O)C(F)(F)F.O=C(O)C(F)(F)F [Compound 4b]
Sensitization to Rifampin (E. coli ATCC 9637 [1]): 7.81
MIC (E. coli ATCC 9637 [2]; [5]): 62.5 μM and 53.4 μg/ml
MIC (S. aureus ATCC 13709; [6]): 125 μM and 106.96 μg/ml

CCCCCCCCCC(=O)NCCCNCCCNCCCCNCCCN.O=C(O)C(F)(F)F.O=C(O)C(F)(F)F.O=C(O)C(F)(F)F.O=C(O)C(F)(F)F [Compound 4c]
Sensitization to Rifampin (E. coli ATCC 9637 [1]): 7.81
MIC (E. coli ATCC 9637 [2]; [5]): 62.5 μM and 54.3 μg/ml
MIC (S. aureus ATCC 13709; [6]): 62.5 μM and 54.3 μg/ml

CCCCCCCCCCCCC(=O)NCCCNCCCNCCCCNCCCN.O=C(O)C(F)(F)F.O=C(O)C(F)(F)F.O=C(O)C(F)(F)F.O=C(O)C(F)(F)F [Compound 4d]
Sensitization to Rifampin (E. coli ATCC 9637 [1]): 62.5
subacute toxicity (CF-1 mice; 100 μg/mouse, subcutaneously, for 15 days): not revealed any detectable toxicity
acute toxicity (CF-1 mice; up to 1 mg/mouse, one dose subcutaneously): not revealed any detectable toxicity
MIC (E. coli ATCC 9637 [2]; [5]): 31.25 μM and 28.9 μg/ml
MIC (S. aureus ATCC 13709; [6]): 15.6 μM and 14.4 μg/ml

CCCCCCCCCCCCCCCCC(=O)NCCCNCCCNCCCCNCCCN.O=C(O)C(F)(F)F.O=C(O)C(F)(F)F.O=C(O)C(F)(F)F.O=C(O)C(F)(F)F [Compound 4f]
hemolysis (human erythrocytes; at 1-5 μM, dilute aged human erythrocytes, protein-free isotonic saline): 100%
hemolytic activity in the presence of human serum albumin (human erythrocytes): completely abrogated
Sensitization to Rifampin (E. coli ATCC 9637 [1]): 15.6
membrane-permeabilizing activity (OM and IM) [3]: highly membrane-active
MIC (E. coli ATCC 9637 [2]; [5]): 62.5 μM and 60.4 μg/ml
MIC (S. aureus ATCC 13709; [6]): 15.6 μM and 15.1 μg/ml

CCCCCCCCCCCCCCCCCCC(=O)NCCCNCCCNCCCCNCCCN.O=C(O)C(F)(F)F.O=C(O)C(F)(F)F.O=C(O)C(F)(F)F.O=C(O)C(F)(F)F [Compound 4g]
hemolytic activity in the presence of human serum albumin (human erythrocytes): completely abrogated
membrane-permeabilizing activity (OM and IM) [3]: highly membrane-active
MIC (E. coli ATCC 9637 [2]; [5]): 62.5 μM and 62.2 μg/ml
MIC (S. aureus ATCC 13709; [6]): 15.6 μM and 15.5 μg/ml

CCCCCCCCCC(=O)NCCCNCCCNCCCCNCCCNCCCNC(=O)CCCCCCCCC.O=C(O)C(F)(F)F.O=C(O)C(F)(F)F.O=C(O)C(F)(F)F.O=C(O)C(F)(F)F [Compound 8b]
surface activity [4]: considerably surface active
sensitization activity (MIC rifampicin alone / MIC rifampicin + 10 μM compound) (E. coli ATCC 9637 [1]; [7]): 4096 fold
Sensitization to Rifampin (E. coli ATCC 9637 [1]): 0.00381
MIC in the presence of human serum albumin (E. coli ATCC 9637 [2]; E. coli, HSA 4.5 g/100 ml, 677 μM): 125 µM
attenuation of MIC by human serum albumin (E. coli ATCC 9637 [2]; E. coli, with vs without HSA 4.5 g/100 ml): four-fold
MIC in the presence of human serum albumin (S. aureus ATCC 13709; S. aureus, HSA 4.5 g/100 ml, 677 μM): 15.6 µM
attenuation of MIC by human serum albumin (S. aureus ATCC 13709; S. aureus, with vs without HSA 4.5 g/100 ml): four-fold

CCCCCCCCCCCCCCC(=O)NCCCNCCCNCCCCNCCCNCCCNC(=O)CCCCCCCCCCCCCC.O=C(O)C(F)(F)F.O=C(O)C(F)(F)F.O=C(O)C(F)(F)F.O=C(O)C(F)(F)F [Compound 8d]
Sensitization to Rifampin (E. coli ATCC 9637 [1]): 15.6
MIC (E. coli ATCC 9637 [2]; [5]): 62.5 μM and 76.3 μg/ml
MIC (S. aureus ATCC 13709; [6]): 250 μM and 305.3 μg/ml

CCCCCCCCCCCCCCCCC(=O)NCCCNCCCNCCCCNCCCNCCCNC(=O)CCCCCCCCCCCCCCCC.O=C(O)C(F)(F)F.O=C(O)C(F)(F)F.O=C(O)C(F)(F)F.O=C(O)C(F)(F)F [Compound 8e]
Sensitization to Rifampin (E. coli ATCC 9637 [1]): 15.6
MIC (E. coli ATCC 9637 [2]; [5]): 62.5 μM and 79.4 μg/ml
MIC (S. aureus ATCC 13709; [6]): 250 μM and 319.3 μg/ml

CCCCCCCCCCCCCCCCCCC(=O)NCCCNCCCNCCCCNCCCNCCCNC(=O)CCCCCCCCCCCCCCCCCC.O=C(O)C(F)(F)F.O=C(O)C(F)(F)F.O=C(O)C(F)(F)F.O=C(O)C(F)(F)F [Compound 8f]
Sensitization to Rifampin (E. coli ATCC 9637 [1]): 15.6
MIC (E. coli ATCC 9637 [2]; [5]): 62.5 μM and 83.3 μg/ml
MIC (S. aureus ATCC 13709; [6]): 125 μM and 166.7 μg/ml

COc1ccccc1CNCCCCCCNCCCCCCCCNCCCCCCNCc1ccccc1OC [Methoctramine, methoctramine tetrahydrochloride, reference compound]
MIC reported by Yasuda et al. (E. coli W3110): 22 μM and 16 mg/l
MIC (E. coli ATCC 9637 [2]; [5]): 312.5 µM
MIC (E. coli ATCC 9637 [2]; Escherichia coli, ATCC9637): 312 µM and 228 µg/mL
MIC (S. aureus ATCC 13709; Staphylococcus aureus, ATCC13709): 156 µM and 114 µg/mL

Cl.Cl.Cl.NCCCNCCCCNCCCNC(=O)Cc1cccc2ccccc12 [Naphthylacetylspermine, naphthylacetyl spermine trihydrochloride, reference compound]
MIC reported by Yasuda et al. (E. coli W3110; trihydrochloride): > 267 μM and > 128 mg/l
MIC (E. coli ATCC 9637 [2]; E. coli ATCC 9637, Mueller-Hinton broth, overnight 37° C., listed as naphthylacetylspermine, trihydrochloride): 1250 µM
MIC (E. coli ATCC 9637 [2]; E. coli ATCC 9637, Mueller-Hinton broth, overnight 37° C., trihydrochloride): 1250 μM and 599.8 μg/ml
MIC (S. aureus ATCC 13709; S. aureus ATCC 13709, Mueller-Hinton broth, overnight 37° C., trihydrochloride): 1250 μM and 599.8 μg/ml

CC(C)C[C@@H]1NC(=O)[C@@H](Cc2ccccc2)NC(=O)[C@H](CCN)NC(=O)[C@@H](NC(=O)[C@H](CCN)NC(=O)[C@@H](N)[C@@H](C)O)CCNC(=O)[C@H]([C@@H](C)O)NC(=O)[C@H](CCN)NC(=O)[C@H](CCN)NC1=O [PMBN, polymyxin B nonapeptide, reference compound] (H-T[Dab][Dab][Dab][dF]L[Dab][Dab]T; lactam 3-C)
MIC of rifampicin in the presence of compound (E. coli ATCC 9637 [1]; [7]): 0.976 µg/mL
sensitization activity (MIC rifampicin alone / MIC rifampicin + 10 μM compound) (E. coli ATCC 9637 [1]; [7]): 16 fold
MIC (E. coli ATCC 9637 [2]; ATCC 9637): 250; (240.7) μM
MIC (E. coli ATCC 9637 [2]; [5]): 250; (240.7) μg/ml
MIC (S. aureus ATCC 13709; ATCC 13709): 500; (481.5) μM
MIC (S. aureus ATCC 13709; [6]): 500; (481.5) μg/ml

CO[C@H]1/C=C/O[C@@]2(C)Oc3c(C)c(O)c4c(O)c(c(/C=N/N5CCN(C)CC5)c(O)c4c3C2=O)NC(=O)/C(C)=C\C=C\[C@H](C)[C@H](O)[C@@H](C)[C@@H](O)[C@@H](C)[C@H](OC(C)=O)[C@@H]1C [rifampicin, reference compound]
MIC (E. coli ATCC 9637 [1]; Escherichia coli, ATCC9637, E. coli ATCC 9637, no test compound, read-out: MIC of rifampicin alone): 15.6 µg/mL

Polymyxin B [PMB, reference compound]
Sensitization to Rifampin (E. coli ATCC 9637 [1]): 0.2
MIC (E. coli ATCC 9637 [2]; [5]): 3.9 μM and 5.4 μg/ml
MIC (S. aureus ATCC 13709; [6]): 125 μM and 173.2 μg/ml
